Measurements: paper PMC4980245 (Environmental and molecular mutagenesis, 2016)

Assays:
[1] = Precipitation/solubility limit of the top test concentration; settings: for top non-precipitating conc.: precipitation in 100× stock solution or upon addition to culture medium
[2] = system: γH2AX; test: MultiFlow DNA Damage Kit flow cytometry, γH2AX in TK6 cells with rat liver S9; type: cell-based; settings: 4 hr exposure with 2% rat liver S9
[3] = system: Phospho-Histone H3; test: MultiFlow DNA Damage Kit flow cytometry, phospho-histone H3; type: cell-based; settings: TK6 cells with rat liver S9; effect particularly evident at 24 hrs for PhIP
[4] = system: TK6 cells; test: Cytotoxicity by relative nuclei counts; type: cell-based; settings: TK6 cells with rat liver S9
[5] = system: p53; type: cell-based; settings: 24 hr time point; TK6 cells, 4 hr exposure with 2% rat liver S9
[6] = system: TK6 cells; test: MultiFlow flow cytometry, polyploidy; type: cell-based; settings: TK6 cells with rat liver S9
[7] = system: HepG2 cells; settings: cited from earlier work
[8] = system: male rat kidney; settings: due to α2μ-globulin nephropathy; ref Kirkland et al., 2015; cited from earlier work

Question: With `c1ccc2c(c1)cc1ccc3cccc4ccc2c1c34` [Benzo[a]pyrene] as the compound, how does the top non-precipitating conc. [1] read?
Answer: 250 µM

Question: For Tunicamycin, which “top conc. due to solubility” value [1] is on record?
Answer: 500 µM

Question: Which γH2AX-associated fluorescence response ([2]; 4 hr time point) does the source give for `O=[N+]([O-])c1ccc2c(c1)Cc1ccccc1-2` [2-Nitrofluorene] here?
Answer: robust responses

Question: And the γH2AX-associated fluorescence response ([2]; 24 hr time point)?
Answer: considerably reduced

Question: What does the source list for `CCN(CC)N=O` [N-Nitrosodiethylamine (DEN), N-Nitrosodiethylamine]?
Answer: proportion of mitotic (p-H3 positive) cells [3]: no evidence of cytotoxicity; cytotoxicity (reductions to RNC) [4]: no evidence of cytotoxicity

Question: With `Nc1ccc2cc3ccccc3cc2c1` [2-Aminoanthracene] as the compound, how does the top non-precipitating conc. [1] read?
Answer: 500 µM

Question: What does the source list for `Cn1c(N)nc2ncc(-c3ccccc3)cc21` [2-amino-1-methyl-6-phenylimidazo [4,5-b]pyridine]?
Answer: proportion of mitotic (p-H3 positive) cells [3]: concentration-dependent reductions; top non-precipitating conc. [1]: 250 µM; p53 response [5]: higher p53 responses at 24 hr relative to the 4 hr time point; polyploid cells [6]: not induced; γH2AX-associated fluorescence response ([2]; 4 hr time point): concentration-related increases; γH2AX-associated fluorescence response ([2]; 24 hr time point): concentration-related increases

Question: Which “induction of MN in HepG2 cells” value [7] does the source give for `Cc1cc2ncccc2c2nc(N)n(C)c12` [3,4-Dimethylimidazo[4,5-f]quinolin-2-amine] here?
Answer: weak inducer

Question: For `CN(C)P(=O)(N(C)C)N(C)C` [Hexamethylphosphoramide], which “proportion of mitotic (p-H3 positive) cells” value [3] is on record?
Answer: no evidence of cytotoxicity

Question: And the “cytotoxicity (reductions to RNC)” value [4]?
Answer: no evidence of cytotoxicity

Question: With `C=C(C)[C@H]1CC=C(C)CC1` [D-Limonene] as the compound, how does the tumor finding [8] read?
Answer: male rat kidney tumors

Question: For `CC(=O)Nc1ccc2c(c1)Cc1ccccc1-2` [2-Acetylaminofluorene], which top non-precipitating conc. [1] is on record?
Answer: 250 µM
